Reference: US20050256093A1, “Branched polyamine steroid derivatives” (Leo Pharma, priority 2002, published 2005)
In brackets after ≈: the same amount, converted by molar mass.

Tests used:
Assay type in all cases: cell-based
Asbergillus niger ZM35 = experiment: agar cup assay MIC; details: Aspergillus niger
Source text: (§1) In vitro investigations have shown a significant potency of the compounds of the invention against a large number of bacteria including gram-positive and gram-negative strains (Staphyiococci, Streptococci, Corynebacteriae, Mycobacteriae, Proteus, Propionibacterium, Pseudomonas, Neisseriae, E. coli) and fungal strains (Candida and Aspergillus). […] In addition, the studies of post-antibiotic effects point towards a strong bactericidal effect of the compounds of the invention. […] Minimum Inhibitory Concentrations were estimated using an agar cup assay. Bacterial strains were obtained from the American Type Culture Collection or from our own collection of clinical isolates. Colonies from fresh overnight culture were resuspended in saline water to 0.5 MacFarland corresponding to 10^8 CFU/ml. 200 ml Mueller Hinton agar (Oxoid) at 48° C. was inoculated at a concentration of 10^6 CFU/ml and poured into square petri dishes (245×245 mm). Holes were made in the inoculated plates and 200 μl of the compounds to be tested were disposed into each hole. A dilution series of compounds contained six dilution between 0.25 and 125 μg/ml. For Streptococci Mueller Hinton agar was supplemented with 5% sheep blood. Plates were appropriately incubated and zone diameters of growth inhibition were measured using an electronic caliper. MICs were estimated using a linear regression curve between the zone diameter of growth inhibition and the log2 of the sample concentration. The microbiological assay set up is in agreement with the European Pharmacopoeia 3rd edition (1997). The inhibition zones are function of the concentration of the compounds used. Known antibiotics including fusidic acid (FA), mupirocin and linezolid were used as reference compounds.

[1] = test system: Corynebacterium xerosis FF; experiment: agar cup assay MIC
Source text: as §1

[2] = test system: Saccaromyces cervisiae ZZ7; experiment: agar cup assay MIC; details: Saccharomyces cerevisiae
Source text: as §1

[3] = test system: Propionibacterium acnes FN33; experiment: agar cup assay MIC; details: Cutibacterium acnes
Source text: as §1

S. aureus CJ200 = experiment: agar cup assay MIC; details: Staphylococcus aureus
Source text: as §1

[4] = test system: Streptococcus pyogenes EC88; experiment: agar cup assay MIC; details: agar with 5% sheep blood
Source text: as §1

[5] = test system: Pseudomonas aeruginosa BA17; experiment: agar cup assay MIC
Source text: as §1

S. aureus CJ234R = experiment: agar cup assay MIC; details: Staphylococcus aureus; S. aureus CJ234R (MRSA, Rifampicin resistant)
Source text: as §1

S. epidermis CK5 = experiment: agar cup assay MIC; details: Staphylococcus epidermidis
Source text: as §1

S. aureus CJ234F = experiment: agar cup assay MIC; details: Staphylococcus aureus; S. aureus CJ234F (MRSA, Fus. resistant)
Source text: as §1

[6] = test system: Streptococcus faecium EI19; experiment: agar cup assay MIC; details: Enterococcus faecium; Streptococcus faecium EI19 (Penicillin resistant); agar with 5% sheep blood
Source text: as §1

S. aureus N6 = experiment: agar cup assay MIC; details: Staphylococcus aureus; S. aureus N6 (Fus. resistant)
Source text: as §1

E. coli HA165 = experiment: agar cup assay MIC; details: Escherichia coli
Source text: as §1

Candida albicans ZA = experiment: agar cup assay MIC
Source text: as §1

S. aureus CJ247 = experiment: agar cup assay MIC; details: Staphylococcus aureus
Source text: as §1

S. aureus = experiment: Minimum Bactericidal Concentration (MBC), broth culture and colony count; details: staphylococci, LB broth, aerobic; concentration twice that of MIC; FIG. 1
Protocol: (§2) 10^6 bacteria were inoculated in 3 ml growth media (S. aureus—LB broth, S. pyogenes—TH broth) containing approximately 2×MIC, 1×MIC, 0.5×MIC and O×MIC respectively of compound 102 (MIC being relative to the strain being tested). S. aureus strains were grown aerobically, and S. pyogenes anaerobically in a carbon dioxide enriched incubator. Samples were diluted and plated on LA-plates (S. aureus) or blood-agar plates (S. pyogenes) followed by 24 hours incubation at 37° C. before being scored for colonies.

S. pyogenes = experiment: as above; details: streptococci, TH broth, anaerobic; concentration twice that of MIC; FIG. 2
Protocol: as §2

CC(=O)O[C@H]1C[C@@]2(C)C(CCC3[C@@]4(C)CC[C@@H](O)[C@@H](C)C4CC[C@@]32C)[C@@H]1[C@H](CCCC(C)C)C(=O)NCCN(CCN)CCN (stereo partly drawn) [Compound 102, 21-N-{2′-[bis(2′-aminoethyl)amino]ethyl}-11-desoxy-17R,20S,24,25-tetrahydrofusid-21-amide]
MIC (Asbergillus niger ZM35): 4 µg/mL (≈ 6.32 µM)
MIC [1]: 4 µg/mL (≈ 6.32 µM)
MIC [2]: 16 µg/mL (≈ 25.3 µM)
MIC [3]: 4 µg/mL (≈ 6.32 µM)
MIC (S. aureus CJ200): 4 µg/mL (≈ 6.32 µM)
MIC [4]: 16 µg/mL (≈ 25.3 µM)
MIC [5]: 16 µg/mL (≈ 25.3 µM)
MIC (S. aureus CJ234R): 4 µg/mL (≈ 6.32 µM)
MIC (S. epidermis CK5): 4 µg/mL (≈ 6.32 µM)
MIC (S. aureus CJ234F): 4 µg/mL (≈ 6.32 µM)
MIC [6]: 16 µg/mL (≈ 25.3 µM)
MIC (S. aureus N6): 4 µg/mL (≈ 6.32 µM)
MIC (E. coli HA165): 16 µg/mL (≈ 25.3 µM)
MIC (Candida albicans ZA): 4 µg/mL (≈ 6.32 µM)
MIC (S. aureus CJ247): 4 µg/mL (≈ 6.32 µM)
bactericidal impact (MBC) (S. aureus): strong bacterial killing
bactericidal impact (MBC) (S. pyogenes): strong bacterial killing

CC(=O)O[C@H]1C[C@@]2(C)C(C[C@@H](O)C3[C@@]4(C)CC[C@H](O)[C@@H](C)C4CC[C@@]32C)[C@@H]1[C@H](CCCC(C)C)C(=O)NCCN(CCN)CCN (some centres unmarked) [Compound 105]
MIC (Asbergillus niger ZM35): 64 µg/mL (≈ 98.6 µM)
MIC [1]: 16 µg/mL (≈ 24.7 µM)
MIC [2]: 64 µg/mL (≈ 98.6 µM)
MIC [3]: 16 µg/mL (≈ 24.7 µM)
MIC (S. aureus CJ200): 16 µg/mL (≈ 24.7 µM)
MIC [4]: 64 µg/mL (≈ 98.6 µM)
MIC [5]: 16 µg/mL (≈ 24.7 µM)
MIC (S. aureus CJ234R): 16 µg/mL (≈ 24.7 µM)
MIC (S. epidermis CK5): 16 µg/mL (≈ 24.7 µM)
MIC (S. aureus CJ234F): 16 µg/mL (≈ 24.7 µM)
MIC [6]: 64 µg/mL (≈ 98.6 µM)
MIC (S. aureus N6): 16 µg/mL (≈ 24.7 µM)
MIC (E. coli HA165): 64 µg/mL (≈ 98.6 µM)
MIC (Candida albicans ZA): 16 µg/mL (≈ 24.7 µM)
MIC (S. aureus CJ247): 16 µg/mL (≈ 24.7 µM)
